Reference: US20240316008A1, “TREATMENT OF SYSTEMIC IMMUNE ACTIVATION SYNDROMES” (TRANQUIS THERAPEUTICS, INC., priority 2020, published 2024)

Columns and labels:
[1] = tested on: neurodegenerative diseases; details: murine models of Parkinson's disease, Alzheimer's disease, ALS; cited from earlier work
[2] = tested on: IL-6; assay: LPS-stimulated IL-6 secretion from human PBMC (ELISA); type: cell-based; details: human PBMC from a first donor, 1 ng/ml LPS, 24h
Procedure: Briefly, 20,000 human PBMC were aliquoted into each well. LPS was added at 1 ng/ml and the cells incubated for 24h in the presence of LPS and TQS-168 or one of its metabolites. Readouts were human IL-6 ELISA and human TNFα ELISA. For assay, supernatants were diluted in culture medium. The supernatant dilution for the IL-6 ELISA was 1:8, and 1:2 for the human TNFα ELISA.

CC(C)(C)c1ccc(-c2nc3ccccc3[nH]2)cc1 [TQS-168, 2-(4-tert-butylphenyl)-1H-benzimidazole]
disease severity [1]: reduce | myeloid-mediated inflammation [1]: suppress | LPS-stimulated IL-6 secretion from PBMCs [2]: inhibition
